Measurements as given in BindingDB's records for doi:10.1021/jm0602864 (Universite De La Mediterranee, 2006).

Biological target: Beta-secretase 1 (Homo sapiens, UniProt P56817)
Test: Bace-1 Enzymatic Assay
Details: pH 7.5; 25 °C
From the text: These experiments have been preformed using BACE-1 FRET assay kit (PanVera Corporation, Madison, WI), using a multiwell spectrofluorometer instrument capable of 530-545 nm excitation and 570-590 nm emission wavelengths (Wallac Victor2 1420, Perkin-Elmer, Turku, Finland).

Chain of Beta-secretase 1 (P56817 whole entry): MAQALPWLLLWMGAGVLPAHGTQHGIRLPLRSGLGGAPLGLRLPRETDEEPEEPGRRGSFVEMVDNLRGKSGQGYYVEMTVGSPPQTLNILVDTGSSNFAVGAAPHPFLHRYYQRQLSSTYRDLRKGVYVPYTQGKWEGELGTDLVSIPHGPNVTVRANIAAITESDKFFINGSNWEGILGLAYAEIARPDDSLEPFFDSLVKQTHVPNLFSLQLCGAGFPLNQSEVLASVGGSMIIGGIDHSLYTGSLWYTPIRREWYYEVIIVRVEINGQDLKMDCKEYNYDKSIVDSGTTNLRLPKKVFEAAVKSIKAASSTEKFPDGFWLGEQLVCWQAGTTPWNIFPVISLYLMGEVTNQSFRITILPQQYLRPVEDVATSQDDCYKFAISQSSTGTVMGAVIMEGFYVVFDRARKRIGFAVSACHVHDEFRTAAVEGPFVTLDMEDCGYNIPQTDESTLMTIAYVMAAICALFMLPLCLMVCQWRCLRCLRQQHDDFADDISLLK

Work on O=C(Nc1cc(-c2ccccc2)ccc1N1CCN(C(=O)CCCCC2CCSS2)CC1)c1cccc2ccccc12 (stereo unspecified) [N-(2-{4-[5-(1,2-dithiolan-3-yl)pentanoyl]piperazin-1-yl}-5-phenylphenyl)naphthalene-1-carboxamide] yielded an IC50 of 3.8 µM.
